{
  "source": "paper PMC3807845",
  "about": "(The Journal of Physical Chemistry. B, 2013)",
  "key": {"[1]": {"assay": "Circular dichroism, secondary structure", "assay_type": "physicochemical", "conditions": "CD", "protocol": "Circular dichroism (CD) scans were performed with an Applied Photophysics Chirascan, in cuvettes of 1 or 0.2 mm path length. In mixing experiments, individual solutions of FITC-cMyb and KIX in pH 7.4 100 mM sodium phosphate (0.05% tween-20) were prepared, and aliquots removed for mixing in a 1:1 ratio. Spectra were obtained for all three solutions and buffer subtracted. The expected spectrum in the absence of protein interaction was calculated as the average of the two spectra for the individual protein solutions. Helical content for FITC-cMyb alone was variously estimated as 28, 30, and 37% using the methods of Perez-Iratxeta et al.,[19] Morriset et al.,[20] and Chen et al.,[21] respectively."}, "KIX [2]": {"target": "KIX", "conditions": "pH 7, 27 °C; read-out: dissociation constant of unlabeled cMyb by ITC; cited from earlier work", "text": "Second, the peptide was still observed to bind to KIX protein. On mixing FITC-cMyb with KIX, a reliable increase in the an ..."}, "[3]": {"test_system": "pseudo-wild-type of KIX with a single point tryptophan mutation in the binding site (and an attached his-tag)", "conditions": "cited from earlier work", "text": "Association kinetics for this complex have recently been reported by Gianni et al., for a pseudo-wild-type of KIX with a single point tryptophan mutation in the binding site (and an attached his-tag).[46] […] After correction for the expected number of molecule collisions, the rate is still temperature dependent (Figure 3), which indicates the presence of an activation barrier that slows the association process. We stop short of interpreting the gradient of this plot (10.9 ± 0.7 kcal/mol) as the enthalpic barrier for folding. First, from CD denaturation studies (Figure S4, Supporting Information), it is clear that even over this narrow range of temperature there are conformatio ..."}, "KIX [4]": {"test_system": "KIX", "conditions": "NMR structure of the complex; cited from earlier work", "text": "We confirmed this increase in helicity on binding by comparing CD measurements of the individual components and mixtures ..."}, "CBP KIX (Mus musculus)": {"target": "CBP KIX (Mus musculus) (UniProt P45481)", "sequence (P45481 583-668)": "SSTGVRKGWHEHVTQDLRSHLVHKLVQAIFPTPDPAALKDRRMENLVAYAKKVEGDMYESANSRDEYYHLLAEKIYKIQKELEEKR", "conditions": "cited from earlier work"}, "KIX domain of mouse CBP [5]": {"target": "T1, KIX domain of mouse CBP (Mus musculus, UniProt P45481)", "T1 construct": "KIX domain of mouse CBP (Uniprot 45481, residues 586–672); hexahistidine tag with thrombin cleavage site (N, cleaved yes); made in house; host or cells: Escherichia coli C41 (DE3)", "T1 sequence (P45481 586-672)": "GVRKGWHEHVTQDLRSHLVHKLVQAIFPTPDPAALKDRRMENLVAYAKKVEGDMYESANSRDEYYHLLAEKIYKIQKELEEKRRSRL", "assay": "Stopped-flow anisotropy kinetics, temperature dependence", "assay_type": "binding", "protocol": "The synthetic gene for the KIX domain of mouse CBP (Uniprot 45481, residues 586–672) was obtained from Genscript. The gene was inserted into a modified version of the pRSET A vector that encodes an N-terminal hexahistidine tag with a thrombin cleavage site between the tag and the protein. Protein expression was carried out in Escherichia coli C41 (DE3) grown in 2xTY media at 37 °C. Expression was induced once the cells reached an optical density of 0.4–0.6 AU at 600 nm, by adding IPTG to a final concentration of 0.1 mM and reducing the temperature to 18 °C. The cells were grown overnight and harvested by centrifugation. […] Bound protein was eluted with 250 mM imidazole, and the his-tag cleaved by overnight incubation with thrombin at room temperature. The protein was further purified by gel filtration using a Superdex G75 column in pH 7.4 100 mM sodium phosphate buffer. For ionic strength studies, KIX protein was buffer exchanged and stored in ddH2O. The concentration of KIX stocks was determined using an extinction coefficient of 12 009 M^–1 cm^–1 at 280 nm obtained by the method of Gill von Hippel.[18]\nN-terminally labeled FITC-cMyb peptide (Uniprot P06876, residues 291–315) was purchased from Biomatik. 1 mg aliquots were dissolved at 1–2 mg/mL in ddH2O as required. The stock concentration was determined from the absorbance at 493 nm of a 20-fold dilution into biophysical buffer, using an extinction coefficient of 75 000 M^–1 cm^–1. Sodium phosphate, MOPS, and sodium chloride were purchased from Sigma. […]\n(§1) Association kinetics were monitored by following the change in anisotropy of FITC-cMyb on binding using a SX20 stopped-flow spectrometer (Applied Photophysics) with an FP1 fluorescence polarization accessory. […] Anisotropy values reported from stopped-flow have not been corrected for background fluorescence.\nIn temperature studies, KIX solutions of various concentrations were mixed 1:1 with 1 μM FITC-cMyb. […] Dissociation rate constants (koff) were calculated from the relation koff = Kdkon, which is appropriate for two-state bimolecular reactions (see Results). […]"}, "KIX domain of mouse CBP [6]": {"target": "T1, KIX domain of mouse CBP", "assay": "Stopped-flow anisotropy kinetics, ionic strength dependence (MOPS)", "assay_type": "binding", "protocol": "Two separate buffer types were utilized in these studies. First, 100 mM sodium phosphate buffer, pH 7.4, the pH of which is relatively insensitive to temperature changes, was used for the temperature studies. Second, 20 mM MOPS (pH 7.30 ± 0.02 at 10 °C) with a range of sodium chloride concentrations was used in ionic strength studies. MOPS buffers in the same range as phosphate but has a lower ionic strength because of its lower valency, enabling a larger range of ionic strengths to be investigated. We observed that the rate of association was slightly lower in phosphate buffer, considering our estimates of its ionic strength. In addition, 0.05% tween-20 was included in all biophysical buffers to avoid nonspecific interactions with plastic-ware.\nIn preparing solutions for kinetic assays, dilutions of KIX and FITC-cMyb stocks were weighed, so that accurate concentrations (accounting for solution density) were obtained.\nas §1, with “fluorescence. […]” for “fluorescence.”\nThe variation in association rate constant with ionic strength (I) was modeled with a Debye–Huckel-like approximation that has been determined empirically (eq 4).[24] […]"}, "[7]": {"conditions": "cited from earlier work", "protocol": "The charge on KIX and cMyb at pH 7.4 was estimated using average pKa values reported for amino acids in globular proteins and model peptides.[54] The charge for FITC-cMyb was corrected to account for N-terminal addition of FITC. At pH 7.3–7.4 and 25 °C, fluoroscein exists predominantly as a dianion (∼90%), with some anion (∼10%), the equilibrium between the two species being described by a protolytic constant of 6.43.[27]"}, "[8]": {"target": "KIX domain of mouse CBP (residues 586-672) (mouse, UniProt P45481 586-672)", "sequence (P45481 586-672)": "as above", "assay": "fluorescence polarisation; equilibrium anisotropy; 1 uM FITC-cMyb incubated 1 h with varying concentrations of KIX; 100 mM sodium phosphate pH 7.4, 0.05% tween-20; 25 °C; fit to eq 2", "conditions": "both partners purified"}, "barnase": {"test_system": "barnase", "conditions": "with barnase, cited from earlier work", "text": "Although these rates are fast, they are nothing remarkable in themselves. […] The most famous example of such rate enhancement is for the two folded proteins barnase and barstar, which have been described as “ultrafast” associating proteins. At low ionic strengths, the reported kon is over 5 × 10^9 M^–1 s^–1; however, extrapolation to infinite ionic strength to obtain an esti ..."}},
  "note": "Values joined by “and” are separate entries in the source; they are usually repeats but may differ in a detail not shown here. Identical values can stand only once. Like-named read-outs stand apart in the source and are kept apart here. Ends that are not written are not given here. * marks the point of attachment. FITC = O=C1OC2(c3ccc(O)cc3Oc3cc(O)ccc32)c2ccc(NC(=S)*)cc21",
  "data": [
    {"molecule": "cMyb: 25 amino acid peptide from the TAD of cMyb, unlabeled", "values": [
      {"measurement": "residual α-helical content, unbound state (summary)", "setting": "[1]; free peptide, pH 7.4 100 mM sodium phosphate", "result": "around 30%"},
      {"measurement": "Kd", "setting": "KIX [2]", "result": 10, "unit": "µM"},
      {"measurement": "fold lower binding affinity than reported here", "setting": "[3]; 25 °C, relatively similar buffer conditions, complex with pseudo-wild-type KIX", "result": 3, "unit": "fold"},
      {"measurement": "decrease of dissociation rate on partial helix stabilization by TFE", "setting": "[3]; TFE", "result": "around 5 fold"},
      {"measurement": "increase of association rate on partial helix stabilization by TFE", "setting": "[3]; TFE", "result": "around 1.4 fold"},
      {"measurement": "kon, Gianni et al.", "setting": "[3]; compared at 25 °C, pseudo-wild-type his-tagged KIX", "result": "(2.5 ± 0.1) × 10^7 M^–1 s^–1"},
      {"measurement": "amino acids in a helix in the bound form", "setting": "KIX [4]", "result": 70, "unit": "%"}
    ]},
    {"molecule": "cMyb transactivation domain (from UniProt P06876)", "values": [
      {"measurement": "Kd", "setting": "CBP KIX (Mus musculus)", "result": "10 µM and 12.5 µM"}
    ]},
    {"molecule": "CC[C@H](C)[C@H](NC(=O)[C@H](CCCNC(=N)N)NC(=O)[C@H](CCCCN)NC(=O)[C@H](CCC(=O)O)NC(=O)[C@H](CCCCN)NC(=S)Nc1ccc2c(c1)C(=O)OC21c2ccc(O)cc2Oc2cc(O)ccc21)C(=O)N[C@@H](CCCCN)C(=O)N[C@@H](CCC(=O)O)C(=O)N[C@@H](CC(C)C)C(=O)N[C@@H](CCC(=O)O)C(=O)N[C@@H](CC(C)C)C(=O)N[C@@H](CC(C)C)C(=O)N[C@@H](CC(C)C)C(=O)N[C@@H](CCSC)C(=O)N[C@@H](CO)C(=O)N[C@H](C(=O)N[C@@H](CCC(=O)O)C(=O)N[C@@H](CC(N)=O)C(=O)N[C@@H](CCC(=O)O)C(=O)N[C@@H](CC(C)C)C(=O)N[C@@H](CCCCN)C(=O)NCC(=O)N[C@@H](CCC(N)=O)C(=O)N[C@@H](CCC(N)=O)C(=O)N[C@@H](C)C(=O)N[C@@H](CC(C)C)C(=O)O)[C@@H](C)O", "note": "[FITC-cMyb]", "values": [
      {"measurement": "koff", "setting": "KIX domain of mouse CBP [5]; 25 °C, extrapolated from temperature dependence, pH 7.4 100 mM sodium phosphate, read-out: koff extrapolated to 25 °C", "result": "230 ± 20", "unit": "s⁻¹"},
      {"measurement": "kon", "setting": "KIX domain of mouse CBP [5]; pH 7.4, read-out: kon extrapolated to 25 °C", "result": "~2.2e+07", "unit": "M⁻¹ s⁻¹"},
      {"measurement": "koff", "setting": "KIX domain of mouse CBP [5]; physiological conditions, expected, read-out: dissociation rate under physiological conditions", "result": "> 300", "unit": "s⁻¹"},
      {"measurement": "kon", "setting": "KIX domain of mouse CBP [6]; 25 °C, from 10 °C basal rate and temperature dependence study, read-out: basal association rate constant estimated at 25 °C", "result": "2.1e+07", "unit": "M⁻¹ s⁻¹"},
      {"measurement": "kon", "setting": "KIX domain of mouse CBP [6]; pH 7.3, 10 °C, 20 mM MOPS pH 7.30, extrapolated with Debye–Huckel-like approximation (eq 4), read-out: basal association rate constant (infinite ionic strength)", "result": "7.7e+06", "unit": "M⁻¹ s⁻¹"}
    ]},
    {"molecule": "O=C1OC2(c3ccc(O)cc3Oc3cc(O)ccc32)c2ccccc21", "note": "[fluoroscein]", "values": [
      {"measurement": "protolytic constant (dianion/anion)", "setting": "[7]; 25 °C", "result": 6.43},
      {"measurement": "fraction as anion", "setting": "[7]; pH 7.3–7.4, 25 °C", "result": "~10", "unit": "%"},
      {"measurement": "fraction as dianion", "setting": "[7]; pH 7.3–7.4, 25 °C", "result": "~90", "unit": "%"}
    ]},
    {"molecule": "KIX: KIX domain of mouse CBP (Uniprot 45481, residues 586–672)", "values": [
      {"measurement": "reversibility of thermal denaturation / aggregation", "setting": "[1]; 10 to 80 °C, indicative of aggregation at higher temperatures", "result": "Apparent nonreversibility"},
      {"measurement": "secondary structure over ionic strength range", "setting": "[1]; MOPS buffers, 10 to 750 mM ionic strength, 10 °C", "result": "no significant change in the secondary structure"},
      {"measurement": "effect of temperature on helical content", "setting": "[1]; thermal denaturation, pH 7.4 100 mM sodium phosphate, 10 to 80 °C", "result": "Helical content was reduced on increasing temperature"}
    ]},
    {"molecule": "{FITC}-KEKRIKELELLLMSTENELKGQQAL (peptide, UniProt P06876 291-315, looked up)", "values": [
      {"measurement": "Kd", "setting": "[8]", "result": "10.5 ± 0.7", "unit": "µM"}
    ]},
    {"molecule": "barstar: two folded proteins barnase and barstar, described as ultrafast associating proteins (protein, UniProt P11540 2-90, looked up) Barstar: KKAVINGEQIRSISDLHQTLKKELALPEYYGENLDALWDCLTGWVEYPLVLEWRQFEQSKQLTENGAESVLQVFREAKAEGCDITIILS", "values": [
      {"measurement": "basal kon, infinite ionic strength", "setting": "barnase; extrapolated to infinite ionic strength", "result": "around 10^5 M^–1 s^–1"},
      {"measurement": "kon at low ionic strength", "setting": "barnase; low ionic strengths", "result": "over 5 × 10^9 M^–1 s^–1"}
    ]}
  ]
}
